PubChem BioAssay (NCI)
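Values below derive from 48-hour exposures of cells grown in 96-well plates, with endpoints linearly interpolated between the two concentrations bracketing the appropriate inhibition level. Here, GI50 denotes the concentration required for 50% inhibition of growth. TGI is the concentration that stops growth completely.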

Legend:
Test in all cases: NCI tumour cell line growth inhibition, 48 h
[1] = system: MALME-3M melanoma
[2] = system: HOP-62 NSCLC
[3] = system: 786-0 renal
[4] = system: MCF7 breast
[5] = system: SF-539 CNS
[6] = system: LOX IMVI melanoma
[7] = system: HT29 colon
[8] = system: RXF 393 renal
[9] = system: SNB-19 CNS
[10] = system: OVCAR-8 ovarian
[11] = system: SK-MEL-2 melanoma
[12] = system: DU-145 prostate
[13] = system: HOP-92 NSCLC
[14] = system: NCI-H226 lung
[15] = system: SF-295 CNS
[16] = system: SNB-75 CNS
[17] = system: IGROV1 ovarian
[18] = system: HCC-2998 colon
[19] = system: SR leukemia
[20] = system: SF-268 CNS
[21] = system: ACHN renal
[22] = system: NCI/ADR-RES ovarian
[23] = system: UO-31 renal
[24] = system: A498 renal
[25] = system: SW-620 colon
[26] = system: TK-10 renal
[27] = system: HCT-15 colon
[28] = system: K-562 leukemia
[29] = system: A549 NSCLC
[30] = system: CAKI-1 renal
[31] = system: T-47D breast
[32] = system: OVCAR-5 ovarian
[33] = system: UACC-257 melanoma
[34] = system: UACC-62 melanoma
[35] = system: NCI-H522 lung
[36] = system: M14 melanoma
[37] = system: MOLT-4 leukemia
[38] = system: COLO 205 colon
[39] = system: SK-OV-3 ovarian
[40] = system: MDA-MB-231 breast
[41] = system: HS 578T breast
[42] = system: BT-549 breast
[43] = system: HL-60(TB) leukemia
[44] = system: SN12C renal
[45] = system: SK-MEL-28 melanoma
[46] = system: PC-3 prostate
[47] = system: HCT-116 colon
[48] = system: KM12 colon
[49] = system: SK-MEL-5 melanoma
[50] = system: RPMI-8226 leukemia
[51] = system: NCI-H23 lung
[52] = system: OVCAR-3 ovarian
[53] = system: U251 CNS
[54] = system: CCRF-CEM leukemia
[55] = system: NCI-H460 lung
[56] = system: MDA-MB-435
[57] = system: OVCAR-4 ovarian

O=C1C=CC(=O)N1C1CCCCCCCCCCC1
GI50 [1]: 5.07 µM
TGI [1]: 15.8 µM
GI50 [2]: 31.5 µM
TGI [2]: > 100 µM
GI50 [3]: 16.1 µM
TGI [3]: 29.7 µM
GI50 [4]: 3.58 µM
TGI [4]: 16.3 µM
GI50 [5]: 15.3 µM
TGI [5]: 29.4 µM
GI50 [6]: 2.44 µM
TGI [6]: 6.72 µM
GI50 [7]: 7.86 µM
TGI [7]: 26.4 µM
GI50 [8]: 4.96 µM
TGI [8]: 17.1 µM
GI50 [9]: > 84.6 µM
TGI [9]: > 100 µM
GI50 [10]: 13.9 µM
TGI [10]: 27.4 µM
GI50 [11]: 16.4 µM
TGI [11]: 33.8 µM
GI50 [12]: 13.9 µM
TGI [12]: 27.2 µM
GI50 [13]: 2.12 µM
TGI [13]: 7.72 µM
GI50 [14]: 9.75 µM
TGI [14]: 24.3 µM
GI50 [15]: 78.7 µM
TGI [15]: > 100 µM
GI50 [16]: 12.7 µM
TGI [16]: > 79.9 µM
GI50 [17]: 13.6 µM
TGI [17]: > 49.2 µM
GI50 [18]: 28.9 µM
TGI [18]: > 73.8 µM
GI50 [19]: 2.23 µM
TGI [19]: 23.8 µM
GI50 [20]: 19.2 µM
TGI [20]: 51.8 µM
GI50 [21]: 2.73 µM
TGI [21]: 7.69 µM
GI50 [22]: 30.6 µM
TGI [22]: > 100 µM
GI50 [23]: 3.42 µM
TGI [23]: 14.2 µM
GI50 [24]: 16.5 µM
TGI [24]: > 93.7 µM
GI50 [25]: 2.59 µM
TGI [25]: 8.14 µM
GI50 [26]: 3.35 µM
TGI [26]: 11.8 µM
GI50 [27]: 3.72 µM
TGI [27]: 14.9 µM
GI50 [28]: 2.93 µM
TGI [28]: 12.8 µM
GI50 [29]: 32.8 µM
TGI [29]: > 100 µM
GI50 [30]: 5.95 µM
TGI [30]: 16.3 µM
GI50 [31]: 3.08 µM
TGI [31]: 11.3 µM
GI50 [32]: 19.8 µM
TGI [32]: 48.7 µM
GI50 [33]: 13 µM
TGI [33]: 27.2 µM
GI50 [34]: 14.7 µM
TGI [34]: 28.5 µM
GI50 [35]: 1.7 µM
TGI [35]: 3.37 µM
GI50 [36]: 10.4 µM
TGI [36]: 25.8 µM
GI50 [37]: 3.28 µM
TGI [37]: 20.1 µM
GI50 [38]: 2.78 µM
TGI [38]: 8.16 µM
GI50 [39]: > 65.5 µM
TGI [39]: > 100 µM
GI50 [40]: 14.5 µM
TGI [40]: 30 µM
GI50 [41]: 17.8 µM
TGI [41]: > 65.3 µM
GI50 [42]: 11.3 µM
TGI [42]: 24.6 µM
GI50 [43]: 5.25 µM
TGI [43]: 15.9 µM
GI50 [44]: 15.6 µM
TGI [44]: 33 µM
GI50 [45]: 14.5 µM
TGI [45]: 28.3 µM
GI50 [46]: 14.2 µM
TGI [46]: 30.9 µM
GI50 [47]: 2.15 µM
TGI [47]: 4.94 µM
GI50 [48]: 41.2 µM
TGI [48]: > 100 µM
GI50 [49]: 16.4 µM
TGI [49]: 37 µM
GI50 [50]: 4.91 µM
TGI [50]: 34 µM
GI50 [51]: 19.1 µM
TGI [51]: 47.5 µM
GI50 [52]: 6.4 µM
TGI [52]: 16.2 µM
GI50 [53]: 27 µM
TGI [53]: > 86.9 µM
GI50 [54]: 0.939 µM
TGI [54]: 4.93 µM
GI50 [55]: 81.1 µM
TGI [55]: > 100 µM
GI50 [56]: 13.7 µM
TGI [56]: 28.5 µM
GI50 [57]: 11.5 µM
TGI [57]: 24.2 µM
